Assay results reported in publication PMC8764033, “Single-molecule analysis of specificity and multivalency in binding of short linear substrate motifs to the APC/C” (Nature Communications, 2022).
“Also recorded” adds a separate entry of the source. Where a SMILES comes first, the peptide text is derived from it.

Tests used:
[1] = target: T1, APC/C^apo (Saccharomyces cerevisiae, UniProt P38042+P53068); assay: SMOR assay, yeast APC/C^apo (no activator); assay type: binding; conditions: Supplementary Table 1, single movie
T1 construct: APC/C was purified from yeast cells; made in house; host or cells: S. cerevisiae W303 strain NHY13 (Cdc16-TAP, Apc1-GFP, cdh1 deleted)
Description: Yeast strains were derivatives of W303 and are listed in Supplementary Table 2. For APC/C purification, we used a strain carrying Cdc16-TAP and lacking Cdh1 (DOM1126); in most experiments, the strain also carried Apc1-GFP (NHY13). Yeast were grown in YPD media to OD600 = 0.8, collected and flash-frozen. Cells were lysed by bead beating in lysis buffer A (50 mM HEPES pH 7.5, 150 mM KCl, 10% glycerol, 0.2% Triton X-100, 63 µM B-glycerophosphate, 48 µM sodium fluoride, 1 µg ml^−1 pepstatin A, 1 µg ml^−1 leupeptin, 1 µg ml^−1 aprotinin, 1 mM PMSF, 1 mM DTT, 0.5 mM EDTA) and APC/C was purified using magnetic IgG beads. The beads were washed using wash buffer A (20 mM HEPES pH 7.5, 150 mM KCl, 10% Glycerol, 0.05% Triton X-100). After incubation with purified Cdh1 or Cdc20, the APC/C was cleaved off the beads with TEV protease in wash buffer A with 0.05% Tween-20 (for single-molecule studies) or 0.05% Triton X-100 (for ensemble assays such as ubiquitylation) and used immediately.
(§1) For all SMOR experiments, 24 × 50 mm high precision glass coverslips (Bioscience Tools) and drilled microscope slides were passivated with a combination of PEG and PEG-biotin (coverslips) or PEG only (slides) following a previously published protocol for SiMPull[31]. Reaction chambers (~20 µl) were created using double-sided tape and epoxy. Protein was immobilized on the surface with 0.2 mg ml^−1 NeutrAvidin in buffer C (20 mM HEPES pH 7.5, 150 mM KCl, 10% glycerol, 0.05% Tween-20, 1 mM DTT). Excess NeutrAvidin was washed away and incubated with either biotin-conjugated mouse monoclonal anti-Strep-Tag II antibody (LSBio, Cat. No. LS-C203632-100) or biotin-conjugated rabbit polyclonal anti-GFP antibody (Rockland, Cat. No. 600-406-215) diluted in buffer C + BSA (0.1 mg ml^−1; Molecular Biology Grade Bovine Serum Albumin). Activator WD40 and activated APC/C (typically 50 µl containing about 65 ng APC/C, of which only a small fraction is immobilized on the glass) were immobilized using anti-Strep-Tag II, while APC/C alone was immobilized with anti-GFP. SMOR results were similar when performed in the buffer (wash buffer B) used in polarization anisotropy.
(§2) To capture dynamic protein–protein interactions, dye-labeled substrate diluted in buffer C + BSA was added to the chamber containing immobilized proteins. Interactions were imaged by TIRF microscopy as described below. For optimal signal-to-noise ratio, peptide concentration was no greater than 1 nM. Protein substrates included Hsl1 aa 667–872 and a C-terminal HaloTag followed by a TAP tag, and were produced by translation in rabbit reticulocyte lysates using TnT Quick Coupled Transcription/Translation System (Promega) (see Supplementary Table 5 for plasmids). Protein was purified with magnetic IgG beads and labeled on the bead with JF549 or JF646 dye so that unbound dye could be washed away. Purified dye-labeled protein was then cleaved from the beads using TEV protease. Before adding substrate to the reaction chamber, oxygen scavenging reagents were added (10 nM protocatechuate-3,4-dioxygenase, 2.5 mM protocatechuic acid, and 1 mM Trolox)[41]. A detailed description of the SMOR analysis pipeline is found in Supplementary Note 1.
(§3) Microscopy was performed with a Nikon Eclipse TE2000-E with Perfect Focus with a 100 × 1.49na oil, Apo TIRF DIC N2, 0.13-0.2, WD0.12 objective. Movies were recorded using the Andor iXon DU-897E-CSO. For visualizing GFP-tagged protein, a 491 nm laser was used with an ET525/50 (Chroma) filter for emission. For visualizing JF549-labeled substrate, a 561 nm laser was used with an ET595/50 (Chroma) filter for emission. For visualizing all Cy5-labeled peptides and JF646-labeled substrates, a 640 nm laser was used with an ET685/70 filter (Chroma) for emission. Initially, for each substrate tested, we acquired movies at multiple intervals to deduce the optimal interval to decrease bleaching. µManager version 2.0 was used to control the microscope and record time-lapse movies.

[2] = target: T2, Cdh1^WD40 (Saccharomyces cerevisiae, UniProt P53197); assay: SMOR assay (single-molecule off-rate, TIRF), yeast Cdh1^WD40; assay type: binding
T2 construct: the WD40 domains of yeast Cdh1 (aa 241–550; pNH144); made in house; host or cells: Sf9 insect cells (baculovirus)
T2 sequence (P53197 241-550): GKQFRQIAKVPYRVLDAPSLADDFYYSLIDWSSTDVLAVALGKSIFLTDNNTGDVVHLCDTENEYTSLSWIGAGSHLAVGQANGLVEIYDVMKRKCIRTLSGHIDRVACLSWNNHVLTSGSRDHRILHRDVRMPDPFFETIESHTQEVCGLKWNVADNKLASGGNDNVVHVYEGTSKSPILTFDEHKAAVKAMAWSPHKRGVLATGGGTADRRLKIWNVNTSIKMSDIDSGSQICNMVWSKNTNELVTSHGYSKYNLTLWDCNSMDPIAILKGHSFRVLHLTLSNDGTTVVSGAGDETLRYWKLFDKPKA
Description: Activators were cloned into the pFastBac HT A vector, with an N-terminal 2xStrep-Tag II. For some experiments, we constructed vectors for expression of the WD40 domains of yeast Cdh1 (aa 241–550; pNH144), human Cdh1 (aa 165–484; pNH164), or human Cdc20 (aa 162–484; pNH188). For SMOR, a C-terminal GFP tag was added. Bacmid plasmids are listed in Supplementary Table 3. Plasmids were transformed into DH10Bac cells, and purified Bacmid was used to transfect Sf9 cells to generate P1 baculovirus, which was used to generate P2 virus. SF9 cells were infected with the P2 virus for 48 h. Flash-frozen pellets were lysed by sonication or high-pressure homogenization in lysis buffer B (50 mM Tris-HCl pH 8, 150 mM KCl, 0.5 mM EDTA, 1 mM DTT, 10% Glycerol, EDTA-free protease inhibitor tablet, 1 µg ml^−1 pepstatin A). After the lysate was applied to the StrepTrap column, the column was washed with wash buffer B (lysis buffer B lacking protease inhibitors) and eluted in the same buffer containing 2.5 mM desthiobiotin.
as §1, §2
as §3, with “Initially, for each substrate tested, we acquired movies at multiple intervals to deduce the optimal interval to decrease bleaching. µManager version 2.0 was used to control the microscope and record time-lapse movies.” left out

[3] = Supplementary Table 1, replicate 1
[4] = Supplementary Table 1, replicate 2

| Compound | Dwell Time (in words) [1] | Dwell Time (in words) [2, 3] | Dwell Time (in words) [2, 4] | binding (in words) [2] |
| --- | --- | --- | --- | --- |
| LPKATRKALGTVNRATEKSVK-K(Cy5) [AurKB D box, Cy5-labeled D box peptide of Aurora B kinase] | no binding | single frame | single frame | – |
| CC[C@H](C)[C@H](NC(=O)[C@H](CC(=O)O)NC(=O)[C@H](CO)NC(=O)[C@H](C)NC(=O)[C@H](C)NC(=O)[C@H](C)NC(=O)[C@H](C)NC(=O)[C@H](CCCCN)NC(=O)[C@@H]1CCCN1C(=O)[C@H](CCCCN)NC(=O)[C@H](CCC(N)=O)NC(=O)[C@@H](N)CCC(=O)O)C(=O)N[C@H](C(=O)N[C@@H](C)C(=O)N[C@@H](CO)C(=O)N[C@@H](Cc1ccccc1)C(=O)N[C@@H](CC(N)=O)C(=O)N[C@@H](CCCCN)C(=O)N[C@@H](CCSC)C(=O)N[C@@H](CC(N)=O)C(=O)N[C@@H](CCCCN)C(=O)O)[C@@H](C)O [Hsl1 D box mutant] (H-EQKPKAAAASDITASFNKMNK-OH; N-terminus and C-terminus assumed) | no binding | no binding | no binding | negligible binding; also recorded: No binding |
| CC[C@H](C)[C@H](NC(=O)[C@H](Cc1ccccc1)NC(=O)[C@H](CO)NC(=O)[C@H](CCCCN)NC(=O)[C@H](CO)NC(=O)[C@H](CCCNC(=N)N)NC(=O)[C@H](CC(N)=O)NC(=O)[C@H](CC(N)=O)NC(=O)[C@H](CC(=O)O)NC(=O)[C@H](CCCCN)NC(=O)[C@H](C)NC(=O)[C@H](C)NC(=O)[C@H](CC(C)C)NC(=O)[C@@H]1CCCN1C(=O)[C@H](CC(C)C)NC(=O)[C@H](CCCNC(=N)N)NC(=O)CNC(=O)[C@H](CCC(N)=O)NC(=O)[C@H](CCC(N)=O)NC(=O)[C@H](CCC(N)=O)NC(=O)[C@H](C)N)C(=O)N[C@@H](CCCCN)C(=O)O [ySecurin D box] (H-AQQQGRLPLAAKDNNRSKSFIK-OH; N-terminus and C-terminus assumed) | no binding | single frame | single frame | – |
| LIYVDKENGEPGTR-K(Cy5) [hSecurin KEN, Cy5-labeled KEN box peptide of human securin/Pttg1] | no binding | no binding | no binding | No binding |
| CC(C)C[C@H](NC(=O)[C@H](C)NC(=O)[C@H](CCCNC(=N)N)NC(=O)[C@H](CCCNC(=N)N)NC(=O)[C@@H]1CCCN1C(=O)[C@H](CCCCN)NC(=O)[C@H](CO)NC(=O)[C@H](CC(=O)O)NC(=O)[C@@H](N)CCC(N)=O)C(=O)N[C@H](C(=O)N[C@@H](CC(=O)O)C(=O)N[C@H](C(=O)N1CCC[C@H]1C(=O)N[C@H](C(=O)N[C@@H](CC(N)=O)C(=O)N[C@@H](CC(N)=O)C(=O)N[C@@H](CC(N)=O)C(=O)N1CCC[C@H]1C(=O)N[C@@H](CC(C)C)C(=O)N[C@@H](CO)C(=O)N[C@@H](CCC(N)=O)C(=O)N[C@@H](CCCCN)C(=O)O)C(C)C)C(C)C)[C@@H](C)O [Clb5 D box] (H-QDSKPRRALTDVPVNNNPLSQK-OH; N-terminus and C-terminus assumed) | no binding | single frame | single frame | – |
| SKAAQFMLYEETAEERNI-K(Cy5) [Acm1 ABBA, Cy5-labeled Cdh1-specific ABBA motif from pseudosubstrate yeast protein Acm1] | no binding | single frame | single frame | – |
